The values that follow come from PMC8162404, “Proteomimetic surface fragments distinguish targets by function” (Chemical Science, 2020).

Structures are written as SMILES.

In assay [1] the target is T1, S100B (Homo sapiens, UniProt P04271).
T1 construct: made in house; host or cells: Escherichia coli BL21(DE3)
T1 sequence (P04271 1-92): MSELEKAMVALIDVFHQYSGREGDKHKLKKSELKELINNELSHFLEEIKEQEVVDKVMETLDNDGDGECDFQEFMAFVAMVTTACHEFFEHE
Nature of the assay: Competition pull-down with native ligand RSK1 (689–735). The assay is classed as binding. To be noted: H14 library; competitor peptide 200 µM; read-out: Surface mapping KD (apparent), competition.

Assay [2] has as its target T2, CaM (Bos taurus, UniProt P62157).
T2 construct: made in house; host or cells: E. coli BL21 (DE3)
The experiment in a line: Pull-down assay with immobilized protein and LSM libraries. The assay is classed as binding, bovine. Particulars: H14 library; 1:2 stoichiometry assumed; read-out: Surface mapping KD (apparent). The essentials: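 CaM buffer was 20 mM HEPES pH 7.4, 150 mM NaCl, 5 mM CaCl2. LSM sublibrary members ([…]) incubated 30 min, RT, with equimolar His-tagged protein on Co-NTA resin. HPLC-MS measured unbound probes; bound fraction relative to resin-only background gave dissociation constants.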

The target in assay [3] is T3, RecQ-WH (Escherichia coli, UniProt P15043).
T3 construct: coding for residues 408– 523 of E. coli RecQ; made in house; host or cells: E. coli BL21(DE3)
T3 sequence (P15043 408-523): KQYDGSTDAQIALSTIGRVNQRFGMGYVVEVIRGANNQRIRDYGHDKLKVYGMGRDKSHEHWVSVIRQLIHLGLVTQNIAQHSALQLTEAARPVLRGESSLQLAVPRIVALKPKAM
The assay is described as above. The arrangement: species or system E. coli. To be noted: H14 library; 1:1 binding assumed; read-out: Surface mapping KD (apparent). The essentials: (§1)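 Buffers were HEPES pH 7.4 with 150 mM NaCl, plus 1 mM TCEP and 1 mM CaCl2 (50 mM HEPES) for S100A4 and S100B, 1 mM TCEP for Gal-1, and no additive for RecQ-WH. Immobilized protein at 64 µM was equilibrated 30 min with the LSM sublibrary, and unbound probes were measured by LC-MS.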

Assay [4] addresses T1, S100B. Described as above. The assay is classed as binding. To be noted: for Kd: H14 library, 1:1 binding assumed, read-out: Surface mapping KD (apparent). Summed up: as §1
The target in assay [5] is T4, S100A4 (Homo sapiens, UniProt P26447).
T4 construct: made in house; host or cells: Escherichia coli BL21(DE3)
T4 sequence (P26447 whole entry): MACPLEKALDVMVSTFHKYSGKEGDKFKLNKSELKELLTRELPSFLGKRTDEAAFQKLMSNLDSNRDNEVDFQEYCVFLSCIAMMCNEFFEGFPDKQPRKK
The assay is described as above. Format: binding. Particulars: for Kd: H14 library, 1:1 binding assumed, read-out: Surface mapping KD (apparent). The essentials:
as §1

The target in assay [6] is T5, Gal-1 (Homo sapiens, UniProt P09382).
T5 construct: made in house; host or cells: E. coli BL21(DE3)
T5 sequence (P09382 whole entry): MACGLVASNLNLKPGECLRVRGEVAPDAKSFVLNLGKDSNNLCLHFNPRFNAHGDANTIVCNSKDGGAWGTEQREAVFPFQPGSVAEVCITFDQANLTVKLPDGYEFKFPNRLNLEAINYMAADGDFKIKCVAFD
The assay is described as above. Particulars: H14 library; 1:1 binding assumed; read-out: Surface mapping KD (apparent). Format: binding. The essentials:
as §1

The target in assay [7] is T2, CaM. The experiment in a line: Competition pull-down with native ligand TRPV1-Ct15. The assay is classed as binding, bovine. To be noted: H14 library; competitor peptide 200 µM; read-out: Surface mapping KD (apparent), competition.
The target in assay [8] is T5, Gal-1. Nature of the assay: Competition pull-down with lactose. Format: binding. To be noted: H14 library; lactose 10 mM; read-out: Surface mapping KD (apparent), competition. The essentials: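 His6-tagged proteins immobilized on Co-NTA resin at 64 µM final with 64-member LSM foldamer sublibraries (1 M each, as printed) in pH 7.4 HEPES/NaCl buffers (Ca2+/TCEP per target), 30 min RT; competitor peptides 200 µM final, lactose 10 mM for Gal-1. Bound fractions from LC-MS loss vs protein-free resin; KD assuming 1:1 binding.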

In assay [9] the target is T3, RecQ-WH. The experiment in a line: Competition pull-down with native ligand SSB-Ct8. Format: binding, E. coli. Particulars: H14 library; competitor peptide 200 µM; read-out: Surface mapping KD (apparent), competition.
In assay [10] the target is T4, S100A4. The experiment in a line: Competition pull-down with native ligand NMIIA (1893–1923). The assay is classed as binding. To be noted: H14 library; competitor peptide 200 µM; read-out: Surface mapping KD (apparent), competition.
Setting [11] is: H14 probes selected for validation.

On to `CC[C@H](C)[C@@H](CC(=O)N[C@H]1CCCC[C@@H]1C(N)=O)NC(=O)[C@H]1CCCC[C@@H]1NC(=O)[C@H]1CCCC[C@@H]1NC(=O)C[C@H](Cc1ccccc1)NC(=O)[C@H]1CCCC[C@@H]1N` [H14 FI], for which the Kd amounted to 202 µM at S100B [1]; 0.6 µM at CaM [2]; 79 µM at RecQ-WH [3]; 21 µM on S100B [4]; 9 µM on S100A4 [5]; 102 µM on Gal-1 [6]. Also, the Kd on CaM [7] came to 121 µM; on Gal-1 [8], 164 µM; at RecQ-WH [9], 266 µM; on S100A4 [10], 280 µM.

Turning to `CC(C)C[C@@H](CC(=O)N[C@H]1CCCC[C@@H]1C(N)=O)NC(=O)[C@H]1CCCC[C@@H]1NC(=O)[C@H]1CCCC[C@@H]1NC(=O)C[C@H](Cc1ccccc1)NC(=O)[C@H]1CCCC[C@@H]1N` [H14 FL], the Kd on S100B [1] is 202 µM; at CaM [2], 0.6 µM; on RecQ-WH [3] it was 79 µM; at S100B [4], 21 µM; at S100A4 [5] it was 9 µM; at Gal-1 [6], 102 µM. In addition, the Kd at CaM [7] worked out at 121 µM; at Gal-1 [8], 164 µM; at RecQ-WH [9], 266 µM; on S100A4 [10] it was 280 µM.

Consider `CC(C)[C@@H](CC(=O)N[C@H]1CCCC[C@@H]1C(N)=O)NC(=O)[C@H]1CCCC[C@@H]1NC(=O)[C@H]1CCCC[C@@H]1NC(=O)C[C@H](Cc1ccccc1)NC(=O)[C@H]1CCCC[C@@H]1N` [H14 FV], for which the Kd at S100B [1] was 253 µM; on CaM [2] it was 1.2 µM; on RecQ-WH [3], 129 µM; at S100B [4], 44 µM; on S100A4 [5], 12 µM; on Gal-1 [6] it was 199 µM. Further, the Kd on CaM [7] is 141 µM; on Gal-1 [8], 323 µM; on S100A4 [10], 376 µM.

Consider `NC(=O)[C@H]1CCCC[C@@H]1NC(=O)C[C@H](Cc1c[nH]c2ccccc12)NC(=O)[C@H]1CCCC[C@@H]1NC(=O)[C@H]1CCCC[C@@H]1NC(=O)C[C@H](Cc1ccccc1)NC(=O)[C@H]1CCCC[C@@H]1N` [H14 FW], for which the Kd at S100B [1] was determined as 177 µM; at CaM [2] it was 0.7 µM; on RecQ-WH [3], 63 µM; on S100B [4], 27 µM; at S100A4 [5] it was 24 µM; on Gal-1 [6], 81 µM. The Kd on CaM [7] stood at 118 µM; on Gal-1 [8], 122 µM; on RecQ-WH [9], 153 µM; on S100A4 [10], 440 µM.

For `CC[C@H](C)[C@@H](CC(=O)N[C@H]1CCCC[C@@H]1C(=O)N[C@H]1CCCC[C@@H]1C(=O)N[C@@H](CCSC)CC(=O)N[C@H]1CCCC[C@@H]1C(N)=O)NC(=O)[C@H]1CCCC[C@@H]1N` [H14 IM], the Kd on S100B [1] came out at 163 µM; on CaM [2], 11 µM; at RecQ-WH [3] it was 340 µM; at S100B [4], 47 µM; at S100A4 [5] it was 3 µM; at Gal-1 [6], 238 µM. Further, at S100A4 [10], the Kd turned out to be 217 µM.

Consider `CC[C@H](C)[C@@H](CC(=O)N[C@H]1CCCC[C@@H]1C(=O)N[C@H]1CCCC[C@@H]1C(=O)N[C@H](CC(=O)N[C@H]1CCCC[C@@H]1C(N)=O)C(C)C)NC(=O)[C@H]1CCCC[C@@H]1N` [H14 IV], for which the Kd came to 178 µM at S100B [1]; 3 µM on CaM [2]; 366 µM on RecQ-WH [3]; 43 µM at S100B [4]; 3 µM on S100A4 [5]; 57 µM on Gal-1 [6]. Moreover, the results for the Kd at Gal-1 [8] and on S100A4 [10] were 114 µM and 187 µM, respectively.

For the compound `CSCC[C@@H](CC(=O)N[C@H]1CCCC[C@@H]1C(N)=O)NC(=O)[C@H]1CCCC[C@@H]1NC(=O)[C@H]1CCCC[C@@H]1NC(=O)C[C@H](CC(C)C)NC(=O)[C@H]1CCCC[C@@H]1N` [H14 LM], the Kd on S100B [1] worked out at 163 µM; at CaM [2], 14 µM; at RecQ-WH [3] it was 233 µM; on S100B [4], 67 µM; at S100A4 [5], 4 µM; at Gal-1 [6], 138 µM. Also, the Kd came out at 468 µM on CaM [7], 334 µM on Gal-1 [8] and 318 µM on S100A4 [10].

As to `CC(C)C[C@@H](CC(=O)N[C@H]1CCCC[C@@H]1C(=O)N[C@H]1CCCC[C@@H]1C(=O)N[C@H](CC(=O)N[C@H]1CCCC[C@@H]1C(N)=O)C(C)C)NC(=O)[C@H]1CCCC[C@@H]1N` [H14 LV], the Kd on S100B [1] is 213 µM; on CaM [2], 3 µM; on RecQ-WH [3] it was 177 µM; on S100B [4], 56 µM; on S100A4 [5] it was 5 µM; on Gal-1 [6], 68 µM. Besides, the Kd on Gal-1 [8] turned out to be 128 µM; at S100A4 [10], 192 µM.

`CC[C@H](C)[C@@H](CC(=O)N[C@H]1CCCC[C@@H]1C(N)=O)NC(=O)[C@H]1CCCC[C@@H]1NC(=O)[C@H]1CCCC[C@@H]1NC(=O)C[C@H](CCSC)NC(=O)[C@H]1CCCC[C@@H]1N` [H14 MI]: the Kd turned out to be 269 µM at S100B [1]; 3 µM at CaM [2]; 226 µM at RecQ-WH [3]; 62 µM at S100B [4]; 11 µM on S100A4 [5]; 145 µM at Gal-1 [6]. Besides, the Kd worked out at 435 µM at CaM [7], 235 µM on Gal-1 [8] and 447 µM on S100A4 [10].

With `CSCC[C@@H](CC(=O)N[C@H]1CCCC[C@@H]1C(=O)N[C@H]1CCCC[C@@H]1C(=O)N[C@H](CC(=O)N[C@H]1CCCC[C@@H]1C(N)=O)CC(C)C)NC(=O)[C@H]1CCCC[C@@H]1N` [H14 ML], the Kd on S100B [1] stood at 269 µM; on CaM [2], 3 µM; at RecQ-WH [3] it was 226 µM; on S100B [4], 62 µM; at S100A4 [5], 11 µM; on Gal-1 [6] it was 145 µM. The values for the Kd on CaM [7], at Gal-1 [8] and at S100A4 [10] were 435 µM, 235 µM and 447 µM, respectively.

Consider `CC(C)[C@@H](CC(=O)N[C@H]1CCCC[C@@H]1C(=O)N[C@H]1CCCC[C@@H]1C(=O)N[C@H](CC(=O)N[C@H]1CCCC[C@@H]1C(N)=O)Cc1ccccc1)NC(=O)[C@H]1CCCC[C@@H]1N` [H14 VF], for which the Kd was found to be 91 µM on S100B [1]; 5 µM at CaM [2]; 347 µM at RecQ-WH [3]; 20 µM at S100B [4]; 3 µM at S100A4 [5]; 93 µM on Gal-1 [6]. In addition, the Kd at CaM [7] amounted to 239 µM; at Gal-1 [8], 193 µM; on S100A4 [10] it was 474 µM.

On to `CC[C@H](C)[C@@H](CC(=O)N[C@H]1CCCC[C@@H]1C(N)=O)NC(=O)[C@H]1CCCC[C@@H]1NC(=O)[C@H]1CCCC[C@@H]1NC(=O)C[C@@H](NC(=O)[C@H]1CCCC[C@@H]1N)C(C)C` [H14 VI], for which the Kd on S100B [1] came out at 181 µM; at CaM [2], 13 µM; on RecQ-WH [3], 366 µM; on S100B [4], 43 µM; on S100A4 [5], 3 µM; at Gal-1 [6], 105 µM. Moreover, the Kd turned out to be 293 µM on Gal-1 [8] and 246 µM at S100A4 [10].

On to `CC(C)C[C@@H](CC(=O)N[C@H]1CCCC[C@@H]1C(N)=O)NC(=O)[C@H]1CCCC[C@@H]1NC(=O)[C@H]1CCCC[C@@H]1NC(=O)C[C@@H](NC(=O)[C@H]1CCCC[C@@H]1N)C(C)C` [H14 VL], for which the Kd at S100B [1] stood at 180 µM; on CaM [2], 13 µM; at RecQ-WH [3], 366 µM; on S100B [4], 43 µM; on S100A4 [5] it was 3 µM; on Gal-1 [6], 66 µM. Besides, the Kd on Gal-1 [8] stood at 220 µM; at S100A4 [10] it was 246 µM. Besides, the “Affinity class of probe (high, medium, low) in pull-down” value on S100B [4] (setting [11]) was “medium”; at S100A4 [5] (setting [11]) it was “high”.
